In US10975037B2 (priority 2018, dated 2021):
pIC50, pKd: −log10 of the molar value. Structures can show the parent of a compound that is named as a salt. Where two headings read alike, the source gives them in different places.

What was measured:
[1] = molecular target: human RORγt ligand binding domain (RORγt LBD) (Homo sapiens (Human), UniProt P51449); assay: RORγt ThermoFluor® assay (thermal shift binding)
Outline: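 Thermal shift with 0.065 mg/mL RORγt LBD and 60 μM 1,8-ANS in 100 mM Hepes pH 7.0, 10 mM NaCl, 2.5 mM GSH, 0.002% Tween-20.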

full-length human RORγt = full-length human RORγt (Homo sapiens (Human), UniProt P51449); assay: RORγt (full-length human) reporter assay, conditions A or B, HEK293T cells; assay type: cell-based; settings: for inhibition at […] / inhibition at 3 µM / inhibition at 2 µM / inhibition at 1 µM: read-out: RORγt (FL) Reporter Assay A or B, % inhibition; for inhibition at 3 µM: 3 μM compound concentration (footnote *); for inhibition at 2 µM: 2 μM compound concentration
Outline: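 After 16–20 h, dual firefly/Renilla luciferase luminescence was read. Firefly signal was normalized to DMSO and saturating reference compound, then to Renilla, and fitted for IC50; % inhibition is versus DMSO.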

[2] = HEK-293T, 0.22 μM compound concentration (footnote *******)
[3] = RORγt (FL) Reporter Assay A or B, IC50, HEK293T cells
[4] = read-out: ThermoFluor® Assay, Kd
[5] = HEK-293T, 0.33 μM compound concentration (footnote *****)

human RORγt ligand binding domain (RORγt LBD), sequence (P51449 other isoform, or with tags, fused parts or gaps): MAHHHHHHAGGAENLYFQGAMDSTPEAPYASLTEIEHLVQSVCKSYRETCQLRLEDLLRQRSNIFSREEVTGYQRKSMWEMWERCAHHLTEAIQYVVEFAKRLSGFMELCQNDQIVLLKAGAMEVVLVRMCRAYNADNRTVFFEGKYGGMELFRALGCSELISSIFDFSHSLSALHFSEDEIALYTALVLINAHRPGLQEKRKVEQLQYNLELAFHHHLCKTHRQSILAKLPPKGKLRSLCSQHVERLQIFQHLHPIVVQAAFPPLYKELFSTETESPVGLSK
full-length human RORγt, sequence (P51449 other isoform, or with tags, fused parts or gaps): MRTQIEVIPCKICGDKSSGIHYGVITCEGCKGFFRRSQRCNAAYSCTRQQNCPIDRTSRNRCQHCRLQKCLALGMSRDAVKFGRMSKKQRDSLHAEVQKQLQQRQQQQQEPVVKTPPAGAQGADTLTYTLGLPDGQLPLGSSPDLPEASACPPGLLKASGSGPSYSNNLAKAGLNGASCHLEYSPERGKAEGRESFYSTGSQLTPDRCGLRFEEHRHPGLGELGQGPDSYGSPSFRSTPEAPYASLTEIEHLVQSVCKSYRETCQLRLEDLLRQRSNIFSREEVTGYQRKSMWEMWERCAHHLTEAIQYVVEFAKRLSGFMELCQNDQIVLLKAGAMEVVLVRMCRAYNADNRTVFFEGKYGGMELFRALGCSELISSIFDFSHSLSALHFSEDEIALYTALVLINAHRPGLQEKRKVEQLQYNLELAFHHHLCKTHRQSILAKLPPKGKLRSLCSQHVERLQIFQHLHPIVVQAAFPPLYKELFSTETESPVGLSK

Structure (SMILES)	pKd ([1]; ThermoFluor® Assay, Kd)	pIC50 (full-length human RORγt; [3])	pKd [1, 4]	also measured
CCn1nc(C(=O)NC[C@@H]2CC[C@@H](S(C)(=O)=O)CO2)c(Cl)c1-c1ccc(CC(C)(C)C(F)(F)F)cc1OC(F)F (racemic) [Example 14, 4-Chloro-5-(2-(difluoromethoxy)-4-(3,3,3-trifluoro-2,2-dimethylpropyl)phenyl)-1-ethyl-N-(((2RS,5SR)-5-(methylsulfonyl)tetrahydro-2H-pyran-2-yl)methyl)-1H-pyrazole-3-carboxamide]	9.85	8.80	–	inhibition at […] (full-length human RORγt; [2]): 99%
CCn1nc(C(=O)NC[C@]2(O)CC[C@@H](S(N)(=O)=O)CC2)c(Cl)c1-c1ccc(C[C@H](C)C(F)(F)F)cc1OC(F)F (single isomer, unassigned) [Example 60, 4-Chloro-5-(2-(difluoromethoxy)-4-((S*)-3,3,3-trifluoro-2-methylpropyl)phenyl)-1-ethyl-N-(((1s,4R)-1-hydroxy-4-sulfamoylcyclohexyl)methyl)-1H-pyrazole-3-carboxamide]	8.72	7.42	–	inhibition at 3 µM (full-length human RORγt; HEK-293T): 114%
CCn1nc(C(=O)NC[C@]2(O)CC[C@@H](S(C)(=O)=O)C[C@H]2N)c(Cl)c1-c1ccc(CC(C)(C)C(F)(F)F)cc1OC(F)F (stereo in doubt) [Example 5, N-(((1RS,2RS,4RS)-2-Amino-1-hydroxy-4-(methylsulfonyl)cyclohexyl)methyl)-4-chloro-5-(2-(difluoromethoxy)-4-(3,3,3-trifluoro-2,2-dimethylpropyl)phenyl)-1-ethyl-1H-pyrazole-3-carboxamide Hydrobromide]	8.77	6.92	–	inhibition at 3 µM (full-length human RORγt; HEK-293T): 103%
Cn1nc(C(=O)NC[C@H]2CC[C@H](S(C)(=O)=O)CC2)c(Cl)c1-c1ccc(CC(C)(C)C(F)(F)F)cc1OC(F)F [Example 155, 4-Chloro-5-(2-(difluoromethoxy)-4-(3,3,3-trifluoro-2,2-dimethylpropyl)phenyl)-1-methyl-N-(((1r,4r)-4-(methylsulfonyl)cyclohexyl)methyl)-1H-pyrazole-3-carboxamide]	–	8.38	9.48	–
CCCn1nc(C(=O)NC[C@H]2CC[C@H](S(C)(=O)=O)CC2)c(Cl)c1-c1ccc(N[C@H](C)C(F)(F)F)cc1OC [Example 30, 4-Chloro-5-(2-methoxy-4-(((R)-1,1,1-trifluoropropan-2-yl)amino)phenyl)-N-(((1r,4R)-4-(methylsulfonyl)cyclohexyl)methyl)-1-propyl-1H-pyrazole-3-carboxamide]	–	7.57	8.68	inhibition at 2 µM (full-length human RORγt; HEK-293T): 104%
CCn1nc(C(=O)NC[C@H]2CC[C@H](S(C)(=O)=O)CC2)c(Cl)c1-c1ccc(CC(C)(C)CC(F)(F)F)cc1OC(F)F [Example 89, 4-Chloro-5-(2-(difluoromethoxy)-4-(4,4,4-trifluoro-2,2-dimethylbutyl)phenyl)-1-ethyl-N-(((1r,4r)-4-(methylsulfonyl)cyclohexyl)methyl)-1H-pyrazole-3-carboxamide]	–	8.27	9.62	inhibition at […] (full-length human RORγt; [5]): 98%
COc1cc(N[C@H](C)C(F)(F)F)ccc1-c1c(Cl)c(C(=O)NC[C@]2(O)CC[C@@H](S(C)(=O)=O)CC2)nn1CC(C)C [Example 29, 4-Chloro-N-(((1s,4S)-1-hydroxy-4-(methylsulfonyl)cyclohexyl)methyl)-1-isobutyl-5-(2-methoxy-4-(((R)-1,1,1-trifluoropropan-2-yl)amino)phenyl)-1H-pyrazole-3-carboxamide]	–	7.21	8.08	inhibition at 6 µM (full-length human RORγt; HEK-293T, read-out: RORγt (FL) Reporter Assay A or B, % inhibition @ 6 μM): 108%
CCn1nc(C(=O)NC[C@H]2CC[C@H](S(C)(=O)=O)CC2)c(Cl)c1-c1ccc(C2(O)CCC(C(F)(F)F)CC2)cc1OC(F)F (single isomer, unassigned) [Example 115, 4-Chloro-5-(2-(difluoromethoxy)-4-((1r*,4r*)-1-hydroxy-4-(trifluoromethyl)cyclohexyl)phenyl)-1-ethyl-N-(((1r,4r)-4-(methylsulfonyl)cyclohexyl)methyl)-1H-pyrazole-3-carboxamide]	7.49	7.80	–	inhibition at 3 µM (full-length human RORγt; HEK-293T): 89%
CCn1nc(C(=O)NC[C@]2(CO)CC[C@@H](S(C)(=O)=O)CC2)c(Cl)c1-c1ccc(CC(C)(C)C(F)(F)F)cc1OC(F)F [Example 91, 4-Chloro-5-(2-(difluoromethoxy)-4-(3,3,3-trifluoro-2,2-dimethylpropyl)phenyl)-1-ethyl-N-(((1s*,4s*)-1-(hydroxymethyl)-4-(methylsulfonyl)cyclohexyl)methyl)-1H-pyrazole-3-carboxamide]	–	8.43	9.62	inhibition at 1 µM (full-length human RORγt; HEK-293T, 1 μM compound concentration (footnote ***)): 99%
CCn1nc(C(=O)NC[C@]2(O)CC[C@@H](S(C)(=O)=O)CC2)c(Cl)c1-c1ccc(CC(C)(C)CC(F)(F)F)cc1OC(F)F [Example 90, 4-Chloro-5-(2-(difluoromethoxy)-4-(4,4,4-trifluoro-2,2-dimethylbutyl)phenyl)-1-ethyl-N-(((1s,4s)-1-hydroxy-4-(methylsulfonyl)cyclohexyl)methyl)-1H-pyrazole-3-carboxamide]	–	8.02	9.29	inhibition at […] (full-length human RORγt; [5]): 91%
CCn1nc(C(=O)NC[C@]2(O)CC[C@@H](S(C)(=O)=O)CC2)c(Cl)c1-c1ccc(CC(C)(C)C(F)(F)F)cc1C [Example 183, 4-Chloro-1-ethyl-N-(((1s,4s)-1-hydroxy-4-(methylsulfonyl)cyclohexyl)methyl)-5-(2-methyl-4-(3,3,3-trifluoro-2,2-dimethylpropyl)phenyl)-1H-pyrazole-3-carboxamide]	–	8.41	8.52	inhibition at […] (full-length human RORγt; [2]): 70%
CCn1nc(C(=O)NC[C@@]2(O)CC[C@H](S(C)(=O)=O)C[C@@H]2O)c(Cl)c1-c1ccc(CC(C)(C)C(F)(F)F)cc1OC(F)F (single isomer, unassigned) [Example 47, 4-Chloro-5-(2-(difluoromethoxy)-4-(3,3,3-trifluoro-2,2-dimethylpropyl)phenyl)-N-(((1S*,2S*,4S*)-1,2-dihydroxy-4-(methylsulfonyl)cyclohexyl)methyl)-1-ethyl-1H-pyrazole-3-carboxamide]	9.43	8.77	–	inhibition at 2 µM (full-length human RORγt; HEK-293T): 103%
CCn1nc(C(=O)NC[C@H]2CC[C@H](S(=O)(=O)NC)CC2)c(Cl)c1-c1ccc(CC(C)(C)C(F)(F)F)cc1OC(F)F [Example 50, 4-Chloro-5-(2-(difluoromethoxy)-4-(3,3,3-trifluoro-2,2-dimethylpropyl)phenyl)-1-ethyl-N-(((1r,4r)-4-(N-methylsulfamoyl)cyclohexyl)methyl)-1H-pyrazole-3-carboxamide]	–	–	10.00	pIC50 (full-length human RORγt; HEK293T cells, read-out: RORγt (FL) Reporter Assay A or B, IC50): 8.52
C[C@H](Cc1ccc(-c2c(Cl)c(C(=O)NC[C@H]3CC[C@H](S(C)(=O)=O)CC3)nn2C)c(OC(F)F)c1)C(F)(F)F [Example 151, 4-Chloro-5-(2-(difluoromethoxy)-4-((R)-3,3,3-trifluoro-2-methylpropyl)phenyl)-1-methyl-N-(((1r,4R)-4-(methylsulfonyl)cyclohexyl)methyl)-1H-pyrazole-3-carboxamide]	–	7.64	8.80	inhibition at 1 µM (full-length human RORγt; HEK-293T): 92%
